Experimental data published in patent publication US5760285A, “Phosphonyldipeptides useful in the treatment of cardiovascular diseases” (priority 1994, dated 1998).

Key:
NEP = target: T1, NEP (Rattus norvegicus, UniProt P07861); experiment: "In vitro" NEP-inhibitory activity (rat kidney cortex membranes, [3H][Leu5]-enkephaline); type: biochemical; settings: membranes from rat kidney cortex
T1 construct: Membranes from kidney cortex were prepared according to the following procedure; from tissue; host or cells: rat kidney cortex membranes
T1 sequence (P07861 1-750): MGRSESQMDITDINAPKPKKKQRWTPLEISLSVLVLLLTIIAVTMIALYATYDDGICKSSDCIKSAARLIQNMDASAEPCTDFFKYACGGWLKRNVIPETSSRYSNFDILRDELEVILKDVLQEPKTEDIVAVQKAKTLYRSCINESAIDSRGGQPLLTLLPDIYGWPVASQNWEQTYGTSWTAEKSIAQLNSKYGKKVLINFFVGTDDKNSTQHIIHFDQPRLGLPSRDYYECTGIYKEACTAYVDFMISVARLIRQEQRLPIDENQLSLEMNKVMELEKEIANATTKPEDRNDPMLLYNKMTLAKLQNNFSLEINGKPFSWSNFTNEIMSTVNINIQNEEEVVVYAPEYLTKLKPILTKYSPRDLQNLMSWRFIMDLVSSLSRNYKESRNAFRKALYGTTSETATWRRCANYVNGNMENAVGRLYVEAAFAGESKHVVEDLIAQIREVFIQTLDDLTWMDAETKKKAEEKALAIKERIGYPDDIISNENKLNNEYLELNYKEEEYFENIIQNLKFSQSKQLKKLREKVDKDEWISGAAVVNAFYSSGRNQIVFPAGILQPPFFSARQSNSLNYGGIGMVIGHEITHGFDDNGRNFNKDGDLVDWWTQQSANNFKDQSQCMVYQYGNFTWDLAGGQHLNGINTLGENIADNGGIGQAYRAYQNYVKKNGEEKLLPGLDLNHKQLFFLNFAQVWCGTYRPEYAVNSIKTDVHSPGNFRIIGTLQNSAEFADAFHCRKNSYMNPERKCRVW
Protocol: a) NEP-inhibitory activity
Membranes from kidney cortex were prepared according to the following procedure.
Cortex was carefully dissected, finely minced and suspended in a homogenization buffer (10 mM sodium phosphate pH 7.4 containing 1 mM MgCl2, 30 mM NaCl, 0.02% NaN3) 1:15 weight/volume.
The tissue was then homogenized for 30 seconds using an Ultra-Turrax homogenizer.
The membranes were collected from the buffer/sucrose interface, washed twice with 50 mM TRIS/HCl buffer (pH 7.4) and resuspended into the same buffer for storage.
The membranes were stored in small aliquots at -80° C. until use.
The NEP-inhibitory activity was evaluated by using the following method.
Incubation (20 minutes at 30° C.) was stopped by adding HCl 0.1M (100 μl).

ACE = target: T2, ACE (Oryctolagus cuniculus, UniProt P12822); experiment: "In vitro" ACE-inhibitory activity (FAPGG substrate); type: biochemical; settings: ACE purified by lung rabbit; tested as lithium salts
T2 construct: ACE (250 mU/ml purified by lung rabbit, EC 3.4.15.1 SIGMA); purchased SIGMA; host or cells: rabbit lung
T2 sequence (P12822 34-1310): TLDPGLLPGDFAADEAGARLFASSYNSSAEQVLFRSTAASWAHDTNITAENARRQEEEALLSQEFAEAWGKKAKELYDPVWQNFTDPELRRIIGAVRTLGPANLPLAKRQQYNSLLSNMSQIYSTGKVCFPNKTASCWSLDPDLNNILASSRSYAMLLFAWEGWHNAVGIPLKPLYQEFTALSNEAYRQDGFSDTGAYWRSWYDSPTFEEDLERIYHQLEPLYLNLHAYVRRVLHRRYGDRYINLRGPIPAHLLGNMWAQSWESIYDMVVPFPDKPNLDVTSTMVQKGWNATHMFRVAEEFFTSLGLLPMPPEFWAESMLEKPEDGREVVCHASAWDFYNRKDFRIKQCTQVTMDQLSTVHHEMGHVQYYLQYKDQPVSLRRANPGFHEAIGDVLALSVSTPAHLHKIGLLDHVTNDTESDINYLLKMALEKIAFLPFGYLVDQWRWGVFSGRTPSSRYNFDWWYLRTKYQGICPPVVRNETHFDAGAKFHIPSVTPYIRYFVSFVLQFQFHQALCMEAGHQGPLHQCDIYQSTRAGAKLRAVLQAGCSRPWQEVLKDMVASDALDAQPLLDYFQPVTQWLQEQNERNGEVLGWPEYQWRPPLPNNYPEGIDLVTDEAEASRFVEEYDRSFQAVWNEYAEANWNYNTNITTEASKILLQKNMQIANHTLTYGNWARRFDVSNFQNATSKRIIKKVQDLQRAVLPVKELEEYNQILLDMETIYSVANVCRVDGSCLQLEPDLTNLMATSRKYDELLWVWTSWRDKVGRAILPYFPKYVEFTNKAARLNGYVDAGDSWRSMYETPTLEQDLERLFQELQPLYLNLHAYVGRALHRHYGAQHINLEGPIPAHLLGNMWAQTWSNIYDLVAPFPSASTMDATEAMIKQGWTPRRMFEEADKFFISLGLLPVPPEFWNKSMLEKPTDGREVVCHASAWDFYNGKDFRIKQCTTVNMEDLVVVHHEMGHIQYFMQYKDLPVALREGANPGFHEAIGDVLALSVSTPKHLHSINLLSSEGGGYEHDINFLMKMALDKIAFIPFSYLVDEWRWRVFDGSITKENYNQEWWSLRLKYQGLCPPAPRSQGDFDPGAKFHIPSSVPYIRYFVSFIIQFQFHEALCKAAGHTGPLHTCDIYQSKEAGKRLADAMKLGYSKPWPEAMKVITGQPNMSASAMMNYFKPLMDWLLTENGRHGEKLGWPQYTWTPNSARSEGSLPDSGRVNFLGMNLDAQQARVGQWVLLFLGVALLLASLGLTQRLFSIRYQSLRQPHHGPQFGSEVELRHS
Protocol: b) ACE-inhibitory activity
The reaction was started by adding furylacryloylphenylalanylglycylglycine 0.8 mM (FAPGG-SIGMA).
Contemporaneously, by using a Beckman DU-50 spectrophotometer provided with a program for calculating delta A/minutes and regression coefficients of the enzyme kinetics curves, the absorbance at 340 nm was recorded in continuo for 5 minutes.

NEP-inhibitory activity IC50 (nM) (NEP; tested as lithium salts) | IC50 (ACE) | NEP inhibition (NEP; at a concentration corresponding to 10^-8 M) | SMILES
not active |  |  | C[C@H](CS)C(=O)N1CCC[C@H]1C(=O)O [Captopril]
 | 20 nM | 42% | O=C([O-])[C@H](Cc1ccccc1)NC(=O)[C@H](Cc1ccccc1)NP(=O)(O)CCCCc1ccccc1.O=C([O-])[C@H](Cc1ccccc1)NC(=O)[C@H](Cc1ccccc1)NP(=O)(O)CCCCc1ccccc1.[Li+].[Li+] [Compound R-5, N-[N'-(4-phenyl)butylphosphonyl-L-phenylalanyl]-L-phenylalanine dilithium salt]
